Data taken from US8420660B2, “Antitubercular alkaloid” (priority 2011, dated 2013).

Tests used:
[1] = tested on: Mycobacterium tuberculosis H37Rv (ATCC 27294); experiment: Primary screen (dose response), Microplate Alamar Blue Assay (MABA), IC90; format: cell-based; conditions: M. tuberculosis H37Rv, BACTEC 12B medium, Level-I assay
Method: Primary Screen (Dose Response): Determination of a 90% Inhibitory Concentration (IC90). The initial screen is conducted against Mycobacterium tuberculosis H37Rv (ATCC 27294) in BACTEC 12B medium using the Microplate Alamar Blue Assay (MABA). Compounds are tested in ten 2-fold dilutions, typically from 100 μg/mL to 0.19 μg/mL. The IC90 is defined as the concentration effecting a reduction in fluorescence of 90% relative to controls. This value is determined from the dose-response curve using a curve-fitting program. Any IC90 value of ≦10 μg/mL is considered “Active” for antitubercular activity.

VERO cell = format: cell-based; conditions: VERO cell CC50 (72 hours exposure) / M. tuberculosis H37Rv IC90

Q: With “10,12-diheptanoyl-11-hydroxy-3-methyl-β-carboline [Compound I]” as the substance, how does the “IC90 (90% inhibitory concentration), antituberculosis activity” value [1] read?
A: 0.948 µg/mL

Q: What about the “Selectivity Index (SI) = CC50 divided by IC90” value (VERO cell) of the same substance?
A: > 105.48
